Source: patent US20220409692A1, “Systems Chemico-Pharmacology Drugs and Methods of Use” (The Medical College of Wisconsin, priority 2019, published 2022)
Peptide text beside a SMILES is read from it.

Biological target: T1, MPO (Homo sapiens, UniProt P05164)
T1 sequence (P05164 49-745): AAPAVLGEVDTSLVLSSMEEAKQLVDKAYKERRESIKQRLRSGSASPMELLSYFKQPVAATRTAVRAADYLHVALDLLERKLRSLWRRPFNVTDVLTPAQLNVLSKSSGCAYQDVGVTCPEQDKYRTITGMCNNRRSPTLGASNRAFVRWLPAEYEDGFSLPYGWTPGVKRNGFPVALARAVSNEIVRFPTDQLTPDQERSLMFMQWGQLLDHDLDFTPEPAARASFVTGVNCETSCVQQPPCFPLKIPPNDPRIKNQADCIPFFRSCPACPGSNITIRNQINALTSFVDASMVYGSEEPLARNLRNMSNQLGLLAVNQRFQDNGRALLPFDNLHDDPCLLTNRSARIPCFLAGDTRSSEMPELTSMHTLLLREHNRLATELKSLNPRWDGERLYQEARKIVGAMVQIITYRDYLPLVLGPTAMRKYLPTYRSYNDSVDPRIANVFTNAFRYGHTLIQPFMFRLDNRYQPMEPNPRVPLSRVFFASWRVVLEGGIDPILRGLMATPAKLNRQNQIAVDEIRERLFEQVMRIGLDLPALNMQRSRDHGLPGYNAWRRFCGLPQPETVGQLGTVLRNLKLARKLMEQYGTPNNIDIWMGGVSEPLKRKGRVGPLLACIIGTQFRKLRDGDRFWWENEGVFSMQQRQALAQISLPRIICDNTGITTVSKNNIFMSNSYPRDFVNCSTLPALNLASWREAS
Test: KYC/AA(n) peptide inhibition of MPO HOCl production (TMB assay) at varied pH
Type: biochemical
Text: Small peptides of generic formula AA(n) (where AA represents different amino acids, and n can be 2-5) are both substrates and inhibitors of MPO (alternatively, inhibitors of EPO). These peptides are […] at the active site of MPO, which subsequently decreases the production of toxic oxidants that includes but not restricted to hypochlorous acid. All MPO activities (i.e., hypochlorous acid production) described herein were quantified by the 3,3′,5,5′-tetramethylbenzidine (TMB) assay. […] The free radical itself may act as an activated species, and is stable enough to react with proximal proteins, peptides, metabolites or small molecules to effect further change. The free radical is not limited to a single target, but may effect change multiple independent targets. In a non-limiting example, the free radical goes on to form a hetero- or homo dimer via an oxidized —S—S— disulfide (or di-Selenium) linkage. Finally, the more interactions between the peptide and active site of MPO that occurs the lower numerical IC50 value of the peptide inhibitor.
KYZ is […] in the presence of MPO, which subsequently decreases the production of hypochlorous acid. All MPO activities (i.e., hypochlorous acid production) were quantified by the 3,3′,5,5′-tetramethylbenzidine (TMB) assay. The tripeptide KXZ, requires amino acid #1 (AA1, K) to be a native amino acid or an artificial amino acid (aa) with a basic side-chain such as an amine functional group (e.g., Lysine (K)). Amino acid #2 (AA2, X) is a native or artificial amino acid that may contain a polar, non-polar, or aromatic amino acid.

## CC(=O)N[C@@H](CCCCN)C(=O)N[C@@H](Cc1ccc(O)cc1)C(=O)N[C@@H](CS)C(N)=O [KYC, N-acetyl lysyltyrosylcysteine amide] (Ac-Lys-Tyr-Cys-NH2)
pH values of 6.5, 7.4 and 8.0
  IC50 values compared with KLC: superior
Varied pH
  IC50 values, inhibition of MPO HOCl production: changing of pH has limited effect on the IC50 values
